According to ChEMBL document CHEMBL1154515, “Gamma-pyrone natural products--a privileged compound class provided by nature” (Bioorg Med Chem, 2009):
≈ marks a conversion by molar mass, not a printed value. Each block holds one molecule with its values, some of them ahead of it. Calls of active or inactive are those of the source. The calls are words filed in the database; no cut-off is given here.

Experiments:
T-cell = assay: Inhibition of Concanavalin A-induced T cell proliferation; format: functional, cell-based
B-cell = assay: Inhibition of LPS-induced B cell proliferation; format: functional, cell-based
[1] = test system: Leptinotarsa decemlineata; assay: Insecticidal activity against Leptinotarsa decemlineata at 1000 ppm; format: functional, organism-based
Helicobacter pylori = assay: Antimicrobial activity against Helicobacter pylori; format: functional
HT-1080 = assay: Cytotoxicity against human HT1080 cells; format: functional, cell-based
[2] = biological target: T1, Potassium voltage-gated channel subfamily A member 3 (Homo sapiens, UniProt P22001); assay: Inhibition of voltage-gated Kv1.3 potassium channel expressed in CHO cells by 86Rb efflux experiment; format: cell-based
[3] = Toxicity in ip dosed rat; format: organism-based; conditions: in vivo
[4] = Depolarization of human T cells by electrophysiological method; format: functional, cell-based; conditions: T-cell
[5] = biological target: T1, Potassium voltage-gated channel subfamily A member 3; assay: Antagonist activity at voltage-gated Kv1.3 potassium channel; format: functional
[6] = Inhibition of NADH fumarate reductase
[7] = test system: Leptinotarsa decemlineata; assay: Insecticidal activity against Leptinotarsa decemlineata; format: functional

T1 sequence (P22001 whole entry): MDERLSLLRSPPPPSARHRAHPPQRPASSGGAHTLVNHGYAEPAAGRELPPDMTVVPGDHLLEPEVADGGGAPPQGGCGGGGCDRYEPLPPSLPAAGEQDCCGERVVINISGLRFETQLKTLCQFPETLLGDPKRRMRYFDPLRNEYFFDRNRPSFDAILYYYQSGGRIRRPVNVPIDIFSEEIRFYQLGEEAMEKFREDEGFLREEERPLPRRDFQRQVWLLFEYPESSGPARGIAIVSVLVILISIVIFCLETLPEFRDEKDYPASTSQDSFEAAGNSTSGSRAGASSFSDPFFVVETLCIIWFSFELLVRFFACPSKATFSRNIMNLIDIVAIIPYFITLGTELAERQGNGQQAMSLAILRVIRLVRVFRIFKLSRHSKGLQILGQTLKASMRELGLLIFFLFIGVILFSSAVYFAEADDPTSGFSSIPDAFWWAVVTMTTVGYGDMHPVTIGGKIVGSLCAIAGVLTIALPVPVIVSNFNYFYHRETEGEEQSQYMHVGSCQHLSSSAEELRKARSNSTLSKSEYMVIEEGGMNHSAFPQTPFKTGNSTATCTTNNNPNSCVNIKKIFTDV

SMILES: COc1oc([C@@H]2C[C@@]3(CO2)[C@H](c2ccc([N+](=O)[O-])cc2)[C@]2(C)C=C(C)C=C(C)[C@@H]23)c(C)c(=O)c1C
IC50 (T-cell): 200 nM

SMILES: COc1oc([C@H]2C[C@@]3(CO2)[C@H](c2ccc([N+](=O)[O-])cc2)[C@]2(C)C=C(C)C=C(C)[C@@H]23)c(C)c(=O)c1C
IC50 (B-cell): 800 nM

SMILES: C=C1CC[C@@H]2[C@](C)(CC[C@H](O)[C@@]2(C)CCC=C(C)C)[C@@H]1Cc1c(OC)oc(C)c(C)c1=O
Activity [1]: inactive

MIC (Helicobacter pylori): 0.1 ng/mL (≈ 0.25 nM)
SMILES: C/C=C(\C)[C@H](O)[C@H](C)/C=C(C)/C=C/C/C(C)=C/Cc1oc(OC)c(C)c(=O)c1C [ACTINOPYRONE A]

MIC (Helicobacter pylori): 0.1 ng/mL (≈ 0.259 nM)
SMILES: C/C=C(\C)[C@H](O)[C@H](C)/C=C(C)/C=C/C/C(C)=C/Cc1oc(OC)cc(=O)c1C [ACTINOPYRONE B]

SMILES: C/C=C(\C)[C@H](O)[C@H](C)/C=C(C)/C=C/C/C(C)=C/Cc1oc(OC)c(CC)c(=O)c1C [ACTINOPYRONE C]
MIC (Helicobacter pylori): 0.1 ng/mL (≈ 0.241 nM)

SMILES: COc1oc([C@H]2C/C(=C/C(C)=C\c3ccc([N+](=O)[O-])cc3)CO2)c(C)c(=O)c1C [ALLOAUREOTHIN]
IC50 (HT-1080): 30 µM

IC50 [2]: 3700 nM
SMILES: C=C1CC[C@@H]2[C@](C)(CC[C@H]3OC=CC[C@]23C)[C@@H]1Cc1c(OC)oc(C)c(C)c1=O [CANDELALIDE A]

IC50 [2]: 1200 nM
SMILES: C=C1CC[C@@H]2[C@](C)(CC[C@H]3OC(C(C)(C)O)=C(O)C[C@]23C)[C@@H]1Cc1c(OC)oc(C)c(C)c1=O [CANDELALIDE B]

IC50 [2]: 2500 nM
SMILES: C=C1CC[C@@H]2[C@](C)(CC[C@H]3OC(C(C)(C)O)=CC[C@]23C)[C@H]1Cc1c(OC)oc(C)c(C)c1=O [CANDELALIDE C]

SMILES: C=C1CC[C@@H]2[C@@](C)(CCC(C)(C)O)[C@@H](O)CC[C@@]2(C)[C@H]1Cc1c(OC)oc(C)c(C(=O)OC)c1=O [COLLECTOTRICHIN A]
LD50 [3]: 16 mg/kg

EC50 [4]: 500 nM
IC50 [5]: 3.9 µM
SMILES: C=C1CC[C@H]2[C@](C)(CCC=C(C)C)[C@@H](OC(C)=O)CC[C@]2(C)[C@@H]1Cc1c(OC)oc(C)c(C)c1=O [NALANTHALIDE]

SMILES: COc1oc([C@H]2C/C(=C/C(C)=C/C(C)=C/C(C)=C/c3ccc([N+](=O)[O-])cc3)CO2)c(C)c(=O)c1C [SPECTINABILIN]
IC50 [6]: 15 nM

SMILES: C=C1CC[C@H]2[C@](C)(CCC=C(C)C)[C@@H](OC(=O)[C@H](OC)[C@@H](C)CC)CC[C@]2(C)[C@@H]1Cc1c(OC)oc(C)c(C)c1=O [VIRIDOXIN A]
LC50 [7]: 39.7 µg/mL (≈ 69600 nM)

SMILES: C=C1CC[C@H]2[C@](C)(CCC=C(C)C)[C@@H](OC(=O)[C@H](O)[C@@H](C)CC)CC[C@]2(C)[C@@H]1Cc1c(OC)oc(C)c(C)c1=O [VIRIDOXIN B]
LC50 [7]: 50.7 µg/mL (≈ 91100 nM)
